In US5585355A, “Method for increasing blood-ocular barrier permeability with permeabilizer peptides” (Alkermes, Inc., priority 1994, dated 1996):
Read-outs that look alike come from different tables or passages of the source.

Tests used:
blood-ocular barrier [1] = experiment: Uptake of [3H]-ganciclovir into the eye after arterial infusion of A-7 (VEP); type: in vivo, guinea pig; details: for KIN of [3H]-ganciclovir: 0 min to 3.0 min; for KIN for ganciclovir, times higher in the presence of A-7: 0 to 3.0 min
Procedure: (§1) Animals were anaesthetized with 6 mg/kg xylazine (Rompun®, Mobay Corp., Shawnee, Kans.) and 30 mg/kg ketamine (Vetacet®, Abeco Co., Inc., Fort Dodge, Iowa) before surgically exposing the neck vessels. The vascular eye perfusion (VEP) technique used here and previously described by Zlokovic et al. (1992, Exp. Eye Res., 54:471) allows for the study of uptake of agents in to the eye while protecting the eye from systemic metabolic changes. The technique is briefly summarized here. A fine polyethylene catheter connected to the extracorporeal perfusion system by silicon tubings was inserted into the right common carotid artery. Immediately after the start of the perfusion, the contralateral carotid artery was ligated and both jugular veins cut to allow free drainage of the perfusate.
The perfusion medium consisted of 20% washed sheep red blood cells (RBC) suspended in mock plasma of the following composition (in mM): 123 NaCl, 4 KCl, 2.5 CaCl2.H2 O, 25 NaHCO3, 1.2 KH2 PO4, 1.8 MgCl2.6H2 O and 5.5 D-glucose. The perfusion medium was gassed with 96% O2 and 4% CO2 and warmed to 37.6° C., and was pumped from a reservoir through a water bath using a Rainin Rabbit peristaltic pump (Rainin Instruments, Woburn, Mass.). All tubing was low gas permeable silicon, and all metal was medical grade stainless steel. The temperature and perfusion pressure were continuously recorded, and the acid-base status frequently monitored. Perfusion pressure was kept slightly above the animal's blood pressure to eliminate any possible ingress from the systemic circulation.
(§2) Isotopically labeled [^14 C]-sucrose was introduced into the perfusion circuit after the 5 minute infusion at a rate of 0.4 to 0.6 μCi/ml/min, over periods ranging from 1.5 min to 4.5 min. In all experiments, the perfusion was terminated by severing the right common carotid artery and decapitating the animal.
(§3) As large a sample as possible (30-40 μl) of the aqueous humor was removed with a 0.5 cc U-100 insulin syringe using 28 G 1/2 microfine IV needle (no dead-space), immediately after the perfusion was terminated. The eyes were enucleated and the lenses rapidly excised via a lateral approach 1.5 mm posteriorly to the limbus. The lenses were blotted on filter paper to remove any adhering aqueous humor and to avoid epithelial contamination by aqueous radioactivity. Corneas were dissected circumferentially about 0.5 mm anteriorly to the limbus. After removal of the anterior segment of the eye, the vitreous body was dissected from the retinal surface. Retinas were scooped from the lying epithelium. All tissues were blotted after dissection to minimize contamination by adjacent tissue layers and/or fluids. Samples of plasma, aqueous humor, lens, cornea, retina and posterior vitreous were treated with 2 ml Beckman Tissue Solubilizer (BTS)-450, and 16 ml of scintillant (Beckman Ready Organic, Fullerton, Calif.). Radioactivity was determined in a Beckman LS-7500 liquid scintillation spectrometer.
The methodology of these experiments is similar to that of Example 1 described above. […] The ocular compartments were dissected as described above and analyzed for uptake of [^3 H]-ganciclovir.

blood-ocular barrier [2] = details: A-7 1 μg/kg; for KIN, unidirectional transport rate of [14C]-sucrose: 3.0 min to 4.5 min
Procedure: Adult Hartley guinea pigs of either sex (250-300 g) were used.
as §1, with “The vascular eye perfusion (VEP) technique used here and previously described by Zlokovic et al. (1992, Exp. Eye Res., 54:471) allows for the study of uptake of agents in to the eye while protecting the eye from systemic metabolic changes.” left out
All tubing was low gas permeable silicon, and all metal was medical grade stainless steel. The temperature and perfusion pressure were continuously recorded, and the acid-base status frequently monitored. Perfusion pressure was kept slightly above the animal's blood pressure to eliminate any possible ingress from the systemic circulation.
as §2
as §3, with “The” for “As large a sample as possible (30-40 μl) of the aqueous humor was removed with a 0.5 cc U-100 insulin syringe using 28 G 1/2 microfine IV needle (no dead-space), immediately after the perfusion was terminated. The”
(When data are expressed as percentages the ratios were multiplied by 100.) The following equations were used to calculate ratios:
Caqueous or Cvitreous /Cplasma =(DPM/ml aqueous or vitreous)/(DPM/ml plasma)
Clens or Ccornea or Cretina /Cplasma =(DPM/g lens or cornea or retina)/(DPM/ml plasma)
Multiple-time uptake series were performed, and the unidirectional transport rate constant, KIN, and initial volume of tracer distribution, VI, were calculated using the following equations where T is the perfusion time:
KIN (plasma-aqueous or vitreous)=[Caqueous or vitreous /Cplasma ]T+VI (aqueous or vitreous/plasma)
KIN (plasma-lens, cornea or retina)=[Clens, cornea or retina /Cplasma ]T+VI (lens cornea or retina/plasma)
The respective KIN and VI values were graphically estimated by linear regression analysis as a slope and ordinate intercept of the line corresponding to the best linear fit to experimental data points for the time period when there was no significant departure from linearity in studied compartments.
Results are presented as means±SE.

For “Arginine-Proline-Hydroxyproline-Glycine-Thienylalanine-Serine-Proline-4-Me-Tyrosine-(CH2 NH)Arginine [A-7]”, the “Uptake of [3H]-ganciclovir, % of plasma concentration (W/W)” value (“Uptake of [3H]-ganciclovir, % … (W/W)” for short) (blood-ocular barrier [1]; aqueous, 1.5 min, arterial infusion of A-7) was 0.46 ± 0.1 % of Plasma Concentration (W/W, the “Uptake of [3H]-ganciclovir, % … (W/W)” value (blood-ocular barrier [1]; aqueous, 3.0 min, arterial infusion of A-7) was 0.51 ± 0.21 % of Plasma Concentration (W/W and the “Uptake of [3H]-ganciclovir, % … (W/W)” value (blood-ocular barrier [1]; aqueous, 4.5 min, arterial infusion of A-7) was 0.55 ± 1.0 % of Plasma Concentration (W/W. For the same substance, the “Ganciclovir uptake into other compartments” value (blood-ocular barrier [1]; compartments other than retina and lens, within the measured time periods) was “did not substantially increase”, the “KIN of [3H]-ganciclovir” value (blood-ocular barrier [1]; cornea) was 1.21 µL/min/g and the “Uptake of [3H]-ganciclovir, % … (W/W)” value (blood-ocular barrier [1]; cornea, 1.5 min, arterial infusion of A-7) was 1.16 ± 0.53 % of Plasma Concentration (W/W. For the same substance, the “Uptake of [3H]-ganciclovir, % … (W/W)” value (blood-ocular barrier [1]; cornea, 3.0 min, arterial infusion of A-7) was 2.98 ± 0.33 % of Plasma Concentration (W/W, the “Uptake of [3H]-ganciclovir, % … (W/W)” value (blood-ocular barrier [1]; cornea, 4.5 min, arterial infusion of A-7) was 2.92 ± 0.46 % of Plasma Concentration (W/W and the “KIN of [3H]-ganciclovir” value (blood-ocular barrier [1]; lens) was 40.3 ± 5.6 µL/min/g. For the same substance, the “KIN for ganciclovir, times higher in the presence of A-7” value (blood-ocular barrier [1]; lens) was 1.3 times, the “Uptake of [3H]-ganciclovir, % … (W/W)” value (blood-ocular barrier [1]; lens, 1.5 min, arterial infusion of A-7) was 7.89 ± 0.52 % of Plasma Concentration (W/W and the “Uptake of [3H]-ganciclovir, % … (W/W)” value (blood-ocular barrier [1]; lens, 3.0 min, arterial infusion of A-7) was 11.86 ± 1.42 % of Plasma Concentration (W/W. The “Uptake of [3H]-ganciclovir, % … (W/W)” value (blood-ocular barrier [1]; lens, 4.5 min, arterial infusion of A-7) was 13.37 ± 1.06 % of Plasma Concentration (W/W, the “Increase in uptake of ganciclovir into the lens” value (blood-ocular barrier [1]; lens, from 1.5 to 4.5 minutes of VEP) was 1.5-2 fold and the “KIN of [3H]-ganciclovir” value (blood-ocular barrier [1]; retina) was 21.2 ± 1.5 µL/min/g. For the same substance, the “KIN for ganciclovir, times higher in the presence of A-7” value (blood-ocular barrier [1]; retina) was 2.6 times, the “Uptake of [3H]-ganciclovir, % … (W/W)” value (blood-ocular barrier [1]; retina, 1.5 min, after 5 min arterial infusion of A-7) was 3.96 ± 0.68 % of Plasma Concentration (W/W and the “Uptake of [3H]-ganciclovir, % … (W/W)” value (blood-ocular barrier [1]; retina, 3.0 min, after 5 min arterial infusion of A-7) was 6.56 ± 0.79 % of Plasma Concentration (W/W. For the same substance, the “Uptake of [3H]-ganciclovir, % … (W/W)” value (blood-ocular barrier [1]; retina, 4.5 min, after 5 min arterial infusion of A-7) was 7.42 ± 1.14 % of Plasma Concentration (W/W, the “Increase of retinal uptake of ganciclovir compared to vehicle control” value (blood-ocular barrier [1]; retina, from 1.5 to 4.5 minutes of VEP) was “two-fold” and the “KIN of [3H]-ganciclovir” value (blood-ocular barrier [1]; vitreous) was 0.47 µL/min/g. For the same substance, the “Uptake of [3H]-ganciclovir, % … (W/W)” value (blood-ocular barrier [1]; vitreous, 1.5 min, arterial infusion of A-7) was 0.02 ± 0.00 % of Plasma Concentration (W/W, the “Uptake of [3H]-ganciclovir, % … (W/W)” value (blood-ocular barrier [1]; vitreous, 3.0 min, arterial infusion of A-7) was 0.04 ± 0.03 % of Plasma Concentration (W/W and the “Uptake of [3H]-ganciclovir, % … (W/W)” value (blood-ocular barrier [1]; vitreous, 4.5 min, arterial infusion of A-7) was 0.11 ± 0.04 % of Plasma Concentration (W/W. For the same substance, the “Uptake of [14C]-sucrose, % of plasma concentration (W/W)” value (from here on “Uptake of [14C]-sucrose, % … (W/W)”) (blood-ocular barrier [2]; aqueous, 1.5 min after sucrose added) was 0.19 ± 0.01 % of Plasma Concentration (W/W, the “Uptake of [14C]-sucrose, % … (W/W)” value (blood-ocular barrier [2]; aqueous, 3.0 min after sucrose added) was 0.41 ± 0.18 % of Plasma Concentration (W/W and the “KIN, unidirectional transport rate of [14C]-sucrose” value (blood-ocular barrier [2]; aqueous) was 9.13 ± 3.66 µL/min/g. The “Uptake of [14C]-sucrose, % … (W/W)” value (blood-ocular barrier [2]; aqueous, 4.5 min after sucrose added) was 1.79 ± 0.68 % of Plasma Concentration (W/W, the “Uptake of [14C]-sucrose, % … (W/W)” value (blood-ocular barrier [2]; cornea, 1.5 min after sucrose added) was 0.48 ± 0.19 % of Plasma Concentration (W/W and the “Uptake of [14C]-sucrose, % … (W/W)” value (blood-ocular barrier [2]; cornea, 3.0 min after sucrose added) was 1.01 ± 0.23 % of Plasma Concentration (W/W. For the same substance, the “KIN, unidirectional transport rate of [14C]-sucrose” value (blood-ocular barrier [2]; cornea) was 16.20 ± 3.42 µL/min/g and the “Uptake of [14C]-sucrose, % … (W/W)” value (blood-ocular barrier [2]; cornea, 4.5 min after sucrose added, an outlier of 0.5% not included) was 3.44 ± 1.40 % of Plasma Concentration (W/W.
